ChEMBL document CHEMBL4428125, “8-Substituted 1,3-dimethyltetrahydropyrazino[2,1-f]purinediones: Water-soluble adenosine receptor antagonists and monoamine oxidase B inhibitors” (Bioorg Med Chem, 2016)
≈ marks a conversion by molar mass, not a printed value.

How the values were obtained:
[1] = molecular target: T1, Adenosine receptor A1 (Rattus norvegicus) (UniProt P25099); experiment: Displacement of [3H]CCPA from A1 receptor in rat brain cortex membranes at 1.5 uM by liquid scintillation counting method; type: cell membranes
T1 sequence (whole entry): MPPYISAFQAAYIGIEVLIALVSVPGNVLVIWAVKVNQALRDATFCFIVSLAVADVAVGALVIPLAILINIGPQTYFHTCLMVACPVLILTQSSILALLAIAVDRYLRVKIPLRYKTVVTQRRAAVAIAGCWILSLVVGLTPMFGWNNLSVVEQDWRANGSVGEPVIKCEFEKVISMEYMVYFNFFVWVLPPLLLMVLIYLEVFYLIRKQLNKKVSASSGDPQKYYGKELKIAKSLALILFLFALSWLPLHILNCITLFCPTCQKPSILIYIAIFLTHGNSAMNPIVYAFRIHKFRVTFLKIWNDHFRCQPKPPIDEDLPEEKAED

[2] = molecular target: T2, Adenosine receptor A2b (Homo sapiens, UniProt P29275); experiment: Displacement of [3H]PSB-603 from human A2B receptor expressed in CHO cell membrane; type: cell membranes
T2 sequence (P29275 whole entry): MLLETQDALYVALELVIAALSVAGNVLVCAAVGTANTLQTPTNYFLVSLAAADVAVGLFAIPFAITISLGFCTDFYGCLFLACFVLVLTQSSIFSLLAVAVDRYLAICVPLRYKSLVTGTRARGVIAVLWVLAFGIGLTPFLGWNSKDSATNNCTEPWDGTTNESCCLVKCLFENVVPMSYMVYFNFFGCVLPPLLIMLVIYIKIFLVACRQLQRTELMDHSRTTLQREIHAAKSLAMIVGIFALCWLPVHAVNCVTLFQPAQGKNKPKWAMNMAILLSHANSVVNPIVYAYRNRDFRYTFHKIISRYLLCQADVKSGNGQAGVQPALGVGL

[3] = Thermodynamic solubility of the compound at pH 4; type: physicochemical; conditions: buffer, read-out: Therm_solubility
[4] = molecular target: T3, Adenosine receptor A2b (Homo sapiens) (UniProt P29275); experiment: Displacement of [3H]PSB-603 from human A2B receptor expressed in CHO cell membrane at 1 uM relative to control; type: cell membranes
T3 sequence (whole entry): T2 sequence (P29275 whole entry)

[5] = molecular target: Adenosine receptor A2a (Rattus norvegicus) (UniProt P30543); experiment: Displacement of [3H]MSX from A2A receptor in rat brain striatum membranes at 1 uM measured after 30 mins by liquid scintillation counting method relative to control; type: cell membranes
[6] = molecular target: T4, Adenosine receptor A3 (Homo sapiens, UniProt P0DMS8); experiment: Displacement of [3H]PSB-11 from human A3 receptor expressed in CHO cell membrane by liquid scintillation counting method relative to control; type: cell membranes
T4 sequence (P0DMS8 whole entry): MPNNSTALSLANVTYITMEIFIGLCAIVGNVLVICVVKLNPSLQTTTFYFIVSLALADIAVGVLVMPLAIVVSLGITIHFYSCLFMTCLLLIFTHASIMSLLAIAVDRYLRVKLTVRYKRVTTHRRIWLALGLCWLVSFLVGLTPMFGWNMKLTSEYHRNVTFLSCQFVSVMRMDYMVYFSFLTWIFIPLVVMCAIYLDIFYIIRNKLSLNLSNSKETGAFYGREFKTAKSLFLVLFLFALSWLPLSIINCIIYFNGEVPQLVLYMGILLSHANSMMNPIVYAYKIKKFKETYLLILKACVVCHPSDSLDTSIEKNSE

[7] = molecular target: T5, Adenosine receptor A1 (Rattus norvegicus, UniProt P25099); experiment: Displacement of [3H]CCPA from A1 receptor in rat brain cortex membranes by liquid scintillation counting method; type: cell membranes
T5 sequence (P25099 whole entry): T1 sequence (whole entry)

[8] = molecular target: Adenosine receptor A2a (Rattus norvegicus, UniProt P30543); experiment: Displacement of [3H]MSX from A2A receptor in rat brain striatum membranes measured after 30 mins by liquid scintillation counting method; type: cell membranes
[9] = Thermodynamic solubility of the compound at pH 7.4; type: physicochemical; conditions: buffer, read-out: Therm_solubility
[10] = Thermodynamic solubility of the compound at pH 1; type: physicochemical; conditions: buffer, read-out: Therm_solubility
[11] = molecular target: T6, Amine oxidase [flavin-containing] B (Homo sapiens, UniProt P27338); experiment: Inhibition of recombinant human MAO-B expressed in baculovirus infected BTI insect cells preincubated for 30 mins followed by addition of p-tyramine as substrate measured over 45 mins by Amplex Red MAO assay
T6 sequence (P27338 whole entry): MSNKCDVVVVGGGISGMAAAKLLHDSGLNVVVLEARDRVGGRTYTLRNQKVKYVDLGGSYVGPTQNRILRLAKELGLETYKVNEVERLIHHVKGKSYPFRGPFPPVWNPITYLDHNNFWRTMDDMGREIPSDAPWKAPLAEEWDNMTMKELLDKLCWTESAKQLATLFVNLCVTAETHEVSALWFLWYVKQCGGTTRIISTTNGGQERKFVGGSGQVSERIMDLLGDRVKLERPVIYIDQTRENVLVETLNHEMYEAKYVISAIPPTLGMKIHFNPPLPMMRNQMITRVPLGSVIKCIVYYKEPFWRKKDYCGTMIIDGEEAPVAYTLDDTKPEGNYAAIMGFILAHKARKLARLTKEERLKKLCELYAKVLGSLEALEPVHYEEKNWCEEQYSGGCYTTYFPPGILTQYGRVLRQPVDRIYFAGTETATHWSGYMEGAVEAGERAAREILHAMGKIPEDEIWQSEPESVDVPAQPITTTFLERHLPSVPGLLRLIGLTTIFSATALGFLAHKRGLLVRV

[12] = molecular target: T6, Amine oxidase [flavin-containing] B; experiment: Inhibition of recombinant human MAO-B expressed in baculovirus infected BTI insect cells at 10 uM preincubated for 30 mins followed by addition of p-tyramine as substrate measured over 45 mins by Amplex Red MAO assay relative to control; conditions: 0.75 h
[13] = molecular target: T7, Adenosine receptor A3 (Homo sapiens) (UniProt P0DMS8); experiment: Displacement of [3H]PSB-11 from human A3 receptor expressed in CHO cell membrane at 10 uM by liquid scintillation counting method relative to control relative to control; type: cell membranes
T7 sequence (whole entry): T4 sequence (P0DMS8 whole entry)

[14] = molecular target: T8, Amine oxidase [flavin-containing] A (Homo sapiens, UniProt P21397); experiment: Inhibition of recombinant human MAO-A expressed in baculovirus infected BTI insect cells preincubated for 30 mins followed by addition of p-tyramine as substrate measured over 45 mins by Amplex Red MAO assay
T8 sequence (P21397 whole entry): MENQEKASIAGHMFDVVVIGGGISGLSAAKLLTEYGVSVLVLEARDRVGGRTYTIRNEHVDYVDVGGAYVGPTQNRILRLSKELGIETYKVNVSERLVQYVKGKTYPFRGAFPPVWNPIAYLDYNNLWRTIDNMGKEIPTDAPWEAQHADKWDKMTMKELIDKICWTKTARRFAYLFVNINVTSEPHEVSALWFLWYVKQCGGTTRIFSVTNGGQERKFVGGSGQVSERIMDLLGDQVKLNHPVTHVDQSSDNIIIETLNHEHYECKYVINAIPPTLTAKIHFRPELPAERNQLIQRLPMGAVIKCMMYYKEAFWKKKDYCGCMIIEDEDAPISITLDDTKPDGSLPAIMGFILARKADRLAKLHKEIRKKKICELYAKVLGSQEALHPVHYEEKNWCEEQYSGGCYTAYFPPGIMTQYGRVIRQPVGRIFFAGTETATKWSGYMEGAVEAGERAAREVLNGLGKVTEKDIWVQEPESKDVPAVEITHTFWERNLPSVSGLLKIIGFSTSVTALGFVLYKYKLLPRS

[15] = molecular target: T8, Amine oxidase [flavin-containing] A; experiment: Inhibition of recombinant human MAO-A expressed in baculovirus infected BTI insect cells at 10 uM preincubated for 30 mins followed by addition of p-tyramine as substrate measured over 45 mins by Amplex Red MAO assay relative to control; conditions: 0.75 h

Adenosine receptor A2a (Rattus norvegicus), sequence (P30543 whole entry): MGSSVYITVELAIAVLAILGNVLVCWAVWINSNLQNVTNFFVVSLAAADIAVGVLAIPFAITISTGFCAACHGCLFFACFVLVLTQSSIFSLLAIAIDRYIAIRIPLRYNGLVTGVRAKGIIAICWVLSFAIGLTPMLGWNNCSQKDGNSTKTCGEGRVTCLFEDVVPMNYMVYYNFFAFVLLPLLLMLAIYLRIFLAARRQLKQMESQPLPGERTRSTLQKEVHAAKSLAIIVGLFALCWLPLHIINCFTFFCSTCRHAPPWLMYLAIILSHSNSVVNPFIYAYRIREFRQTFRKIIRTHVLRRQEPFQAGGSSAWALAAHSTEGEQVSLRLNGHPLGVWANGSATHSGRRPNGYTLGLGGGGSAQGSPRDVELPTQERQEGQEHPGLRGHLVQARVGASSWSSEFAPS
Adenosine receptor A2a, sequence (P30543 whole entry): as above

Activity [1] [%]	Ki [2] [nM]	solubility thermodynamic [3] [µg/mL]	Activity [4] [%]	Activity [5] [%]	Ki [6] [nM]	Ki [7] [nM]	Ki [8] [nM]	solubility thermodynamic [9] [µg/mL]	solubility thermodynamic [10] [µg/mL]	IC50 [11] [nM]	inhibition at 10 µM [12] [%]	Activity [13] [%]	IC50 [14] [nM]	inhibition at 10 µM [15] [%]	Compound
8	> 1000	< 0.5	11	31	> 10000	> 1500	> 1000	< 0.5	> 1500	> 10000	22	42			Cn1c(=O)c2c(nc3n2CCN(CCOc2cccc(F)c2)C3)n(C)c1=O
22	> 1000		4		> 10000	> 1500	4960	1 (≈ 2.67 µM)		> 10000	36	37			Cn1c(=O)c2c(nc3n2CCN(CCc2ccc(Cl)cc2)C3)n(C)c1=O
10	> 1000	< 0.5	24	27	> 10000	> 1500	> 1000	< 0.5	> 1500	970		35			Cn1c(=O)c2c(nc3n2CCN(CCc2ccccc2Br)C3)n(C)c1=O
17	> 1000		7	32	> 10000	> 1500	> 1000			> 10000	13	9			COc1cccc(C#CCN2CCn3c(nc4c3c(=O)n(C)c(=O)n4C)C2)c1
25	> 1000		30	19	> 10000	> 1500	> 1000	1 (≈ 2.04 µM)		10000	67	40			Cc1sc(-c2ccc(C(F)(F)F)cc2)nc1CN1CCn2c(nc3c2c(=O)n(C)c(=O)n3C)C1
36	> 1000		27	26	> 10000	> 1500	> 1000			> 10000	12	11			Cn1c(=O)c2c(nc3n2CCN(Cc2cn(-c4ccc(Cl)cc4)nn2)C3)n(C)c1=O
13	> 1000		4	13	> 10000	> 1500	> 1000			> 10000	2	11			Cn1c(=O)c2c(nc3n2CCN(CCCn2ccnc2)C3)n(C)c1=O
15	> 1000		8	14	> 10000	> 1500	> 1000	700 (≈ 2040 µM)		> 10000	-17	5			Cc1cc(CN2CCn3c(nc4c3c(=O)n(C)c(=O)n4C)C2)n(C)n1
7	> 1000	70 (≈ 197 µM)	20		> 10000	> 1500	7110	90 (≈ 253 µM)	1100 (≈ 3100 µM)	> 10000	3	11			Cn1c(=O)c2c(nc3n2CCN(CC(O)c2ccccc2)C3)n(C)c1=O (stereo not drawn)
17	> 1000		7	42	> 10000	> 1500	> 1000			> 10000	5	20	> 10000	19	Cn1c(=O)c2c(nc3n2CCN(CC#Cc2cccc(Cl)c2)C3)n(C)c1=O
9	> 1000		7	15	> 10000	> 1500	> 1000			> 10000	4	39			COc1ccccc1CCN1CCn2c(nc3c2c(=O)n(C)c(=O)n3C)C1
11	> 1000		9	11	> 10000	> 1500	> 1000			> 10000	7	8	> 10000	2	COc1cccc2c1CC[C@H](N1CCn3c(nc4c3c(=O)n(C)c(=O)n4C)C1)C2
-2	> 1000		6	16	> 10000	> 1500	> 1000			> 10000	13	43			COc1ccc(CCN2CCn3c(nc4c3c(=O)n(C)c(=O)n4C)C2)cc1OC
29	> 1000		15	31	> 10000	> 1500	> 1000			> 10000	31	35			Cn1c(=O)c2c(nc3n2CCN(CC#Cc2ccc(Cl)c(Cl)c2)C3)n(C)c1=O
11	> 1000		8		> 10000	> 1500	6040	1 (≈ 2.81 µM)		> 10000	15	35			Cn1c(=O)c2c(nc3n2CCN(CCc2ccc(O)cc2)C3)n(C)c1=O
